Measurements published in PMC12114947, “Evaluation of Violacein Metabolic Stability and Metabolite Identification in Human, Mouse, and Rat Liver Microsomes” (Pharmaceutics, 2025).
In brackets after ≈: the same amount, converted by molar mass.

How the values were obtained:
[1] = tested on: experimental autoimmune encephalomyelitis (EAE); design: method as in PMID 25938431; conditions: EAE mice, three days of treatment, intraperitoneal 3.5 mg/kg; reduced from 4; cited from earlier work
Cryptococcus gastricus = tested on: Cryptococcus gastricus; design: method as in PMID 26428920; conditions: cited from earlier work
[2] = buffer, 720 h, pH 5; cited from earlier work
[3] = In vitro metabolic stability in mouse liver microsomes; format: in vitro ADME
Description: After removal, a pool consisting of livers from five naïve male rats and five C57BL male mice was immediately placed in a 50 mM Tris-HCl buffer, pH 7.4, containing 150 mM KCl. The livers were diced with scissors and washed three times with buffer, followed by homogenization with 20 mL of buffer in a Potter-type homogenizer (three cycles, with each cycle comprising three grindings of 1 min each at 1000 rpm). The homogenate was centrifuged at 10,000× g for 15 min at 4 °C. The resulting supernatant was then ultracentrifuged at 100,000× g for 60 min at 4 °C to obtain the microsomal pellet, which was resuspended in 50 mM HEPES-HCl buffer, pH 7.4, containing 20% glycerol and 1 mM EDTA.
(§1) The metabolic stability of volacein was assessed as described by Godoi et al. and Antunes et al.. Aliquots (4 µL) of 100 µM violacein working solution and 96 µL of the NADPH-regenerating system, containing 1.1 mM NADP^+, 10 mM glucose-6-phosphate, 1 U/mL glucose-6-phosphate dehydrogenase, 5 mM sodium citrate, and 66 mM magnesium chloride in 100 mM phosphate buffer, pH 7.4, were transferred to propylene tubes and pre-incubated for 5 min in an MTC 100 thermo shaker incubator (Miulab, Zhejiang, China) at 300 rpm and 37 °C. Subsequently, the metabolic reactions were initiated by adding 100 μL of microsomal proteins from HLMs, RLMs, and MLMs at a concentration of 2 mg/mL to the pre-incubated shaking tubes, resulting in final concentrations of 2 μM for violacein and 1 mg/mL for microsomal proteins. In this experiment, seven incubation times were planned for each species (0, 3, 5, 15, 30, 60, and 120 min), in triplicate. At each time interval, the reactions were stopped by adding 400 μL of ice-cold acetonitrile spiked with 10 µM omeprazole (IS) to each tube. Finally, the samples were vortexed for 5 min in a BenchMixer^TM XL (Benchmark, NJ, USA) and centrifuged at 12,000× g for 15 min at 4 °C (Hettich® Universal 320 R, Tuttlingen, Germany). The supernatants were transferred to a 96-well plate and 8 μL was injected into the LC-MS/MS system (see Section 2.3).
(§2) All incubations were performed simultaneously with positive and negative controls. The positive controls were prepared by incubating dapaconazole at the same conditions as violacein (final concentrations: 2 μM) and its metabolic stability was compared with previous studies. Similarly, the negative controls were prepared by incubating violacein in buffer solution, in the absence of microsome and cofactor solutions.
(§3) Violacein was analyzed using LC-MS/MS (LC-QQQ MS, LCMS8045, Shimadzu, Kyoto, Japan). Chromatographic separation was achieved on a Raptor^TM Biphenyl column (2.1 × 100 mm, 2.7 μm) at 40 °C. The mobile phases consisted of water (mobile phase A) and methanol (mobile phase B), both containing 2 mM ammonium formate and 0.1% (v/v) formic acid. A flow rate of 0.3 mL/min was used with an elution gradient starting at 20% mobile phase B and holding for 0.2 min, followed by a linear increase to 95% mobile phase B over 2 min that was then maintained for 1 min, with a return to the initial condition in 0.2 min. The total chromatographic run time was 5 min.
(§4) In vitro t1/2 was calculated using to the following equation [60, 61]:(1) t1/2=ln(2)/k where k is the slope of the log-linear regression graph of the percentage of drug remaining as a function of time.
CLint, in vitro was calculated using to the following equation [60, 61]:(2) CLint, in vitro=0.693/t1/2×Vincubation/mmicrosomes where Vincubation indicates the volume of the incubation in μL and mmicrosomes indicates the mass of microsomal proteins added to the incubation solution in mg. […]

in vitro = in vitro ADME; conditions: human
Description: as §1, §2, §3, §4
CLint, in vitro was calculated using to the following equation [60, 61]:(2) CLint, in vitro=0.693/t1/2×Vincubation/mmicrosomes where Vincubation indicates the volume of the incubation in μL and mmicrosomes indicates the mass of microsomal proteins added to the incubation solution in mg.
After determining CLint, in vitro, it was possible to calculate CLint, in vivo using allometric scaling, as follows:(3) CLint, in vivo=CLint, in vitro×mmicrosomes/gliver×mliver/kgper body weight where mmicrosomes is 61, 45, and 40 mg and represents the mass of microsomal protein per gram of liver (gliver) for rats, mice, and humans, respectively. The mliver is 40, 87.5, and 25.7 g/kg and represents the mass of liver per kilogram of body weight (kgper body weight) for rats, mice, and humans, respectively.
Metabolic stability was evaluated by linear regression analysis of the residual violacein after incubating 4 µM violacein with 2 mg/mL of HLMs, MLMs, and RLMs in the presence of the enzymatic cofactors required for CYP function in microsomes. Calculation of the in vitro violacein metabolic stability was achieved by plotting the remaining percentage of violacein on the y-axis and the incubation time on the x-axis (Figure 1a). […]

HT29 cells = tested on: HT29 cells; design: method as in PMID 16889929; conditions: cited from earlier work

CLint, in vitro ([3]; MLMs): 17.01 µL/min/mg
Ln Z ([3]; MLMs, time 0 min): 4.605
Z (%), remaining percentage of violacein ([3]; MLMs, time 0 min): 100%
Ln Z ([3]; MLMs, time 3 min): 4.490
Z (%), remaining percentage of violacein ([3]; MLMs, time 3 min): 89%
Ln Z ([3]; MLMs, time 5 min): 4.379
Z (%), remaining percentage of violacein ([3]; MLMs, time 5 min): 80%
Ln Z ([3]; MLMs, time 15 min): 4.244
Z (%), remaining percentage of violacein ([3]; MLMs, time 15 min): 70%
Ln Z ([3]; MLMs, time 30 min): 4.022
Z (%), remaining percentage of violacein ([3]; MLMs, time 30 min): 56%
Ln Z ([3]; MLMs, time 60 min): 3.715
Z (%), remaining percentage of violacein ([3]; MLMs, time 60 min): 41%
Ln Z ([3]; MLMs, time 120 min): 3.385
microsomal CLint at 2 µM ([3]; male, C57BL, mouse, mouse liver microsomes, pH 7.4, MLMs): 17 µL/min/mg
CLint scaled at 2 µM ([3]; male, C57BL, mouse, mouse liver microsomes, pH 7.4, mouse, extrapolated from CLint, in vitro by allometric scaling, read-out: CLint, in vivo): 67 mL/min/kg
half-life at 2 µM ([3]; male, C57BL, mouse, mouse liver microsomes, pH 7.4, MLMs, 2 μM violacein, 1 mg/mL microsomal protein, NADPH-regenerating system, 37 °C, n = 3, read-out: In vitro elimination half-life (t1/2)): 1.35 h
CLint, in vivo ([3]; mouse, extrapolated from CLint, in vitro by allometric scaling): 66.99 mL/min/kg
Ln Z (in vitro; 0 min, 2 µM, pH 7.4): 4.605
Ln Z (in vitro; 3 min, 2 µM, pH 7.4): 4.462
Ln Z (in vitro; 5 min, 2 µM, pH 7.4): 4.417
Ln Z (in vitro; 15 min, 2 µM, pH 7.4): 4.316
Ln Z (in vitro; 30 min, 2 µM, pH 7.4): 4.277
Ln Z (in vitro; 60 min, 2 µM, pH 7.4): 4.183
Ln Z (in vitro; 120 min, 2 µM, pH 7.4): 4.017
Z (%), remaining percentage of violacein (in vitro; microsomes, 0 h, 2 µM, pH 7.4): 100%
CLint, in vivo (in vitro; microsomes, 2 µM, pH 7.4): 6.58 mL/min/kg
Z (%), remaining percentage of violacein (in vitro; microsomes, 0.05 h, 2 µM, pH 7.4): 87%
Z (%), remaining percentage of violacein (in vitro; microsomes, 5 min, 2 µM, pH 7.4): 83%
Z (%), remaining percentage of violacein (in vitro; microsomes, 0.25 h, 2 µM, pH 7.4): 75%
Z (%), remaining percentage of violacein (in vitro; microsomes, 0.5 h, 2 µM, pH 7.4): 72%
Z (%), remaining percentage of violacein (in vitro; microsomes, 1 h, 2 µM, pH 7.4): 66%
half-life at 2 µM (in vitro; microsomes, pH 7.4): 3.6 h
microsomal CLint at 2 µM (in vitro; microsomes, pH 7.4): 6.4 µL/min/mg
CLint scaled at 2 µM (in vitro; microsomes, pH 7.4, CLint, in vivo): 6.6 mL/min/kg
SMILES: O=C1NC(c2c[nH]c3ccc(O)cc23)=C/C1=C1\C(=O)Nc2ccccc21 [violacein]
Maximum clinical score [1]: 2
MIC (Cryptococcus gastricus): 32 µg/mL (≈ 93.2 µM)
Residual pigment remaining unaltered [2]: more than 80%
Slope (k), metabolism rate constant ([3]; MLMs, ln remaining % vs incubation time): y = −0.0085x + 4.3405 r^2 = 0.9554 Slope (k) = 0.0085
Slope (k), metabolism rate constant (in vitro; 2 µM, pH 7.4): y = −0.0032x + 4.3894 r^2 = 0.9651 Slope (k) = 0.0032
IC50 (HT29 cells): > 10 µM
